Laboratory results as given in article PMC9706920, “Aryloxypropanolamine targets amyloid aggregates and reverses Alzheimer-like phenotypes in Alzheimer mouse models” (Alzheimer's Research & Therapy, 2022).

Tests used:
[1] = biological target: T1, Aβ(1–42) (Homo sapiens, UniProt P05067); test: ThT fluorescence Aβ(1–42) aggregation inhibition assay; assay type: biochemical; details: compounds at 0.5, 5, 50, 500 μM co-incubated with monomeric Aβ(1–42) 25 μM, 37°C, 3 days; concentration of the printed value not stated
T1 construct: Synthesized monomeric Aβ(1–42), […]; […]; IA; made in house; host or cells: chemical synthesis (Fmoc solid phase peptide synthesis)
Procedure: (§1) ThT fluorescence was used to assess the in vitro inhibition of Aβ(1–42) and disaggregation of Aβ(1–42), Aβ(1–40), Aβ(pE3-42), recombinant tau K18, and tau repeats R1, R2, R3, R4 by YIAD compounds. In house synthetic Aβ(1–42) was dissolved in DMSO (1 mM, 100% DMSO) and diluted to 20-fold in deionized water to make 50 μM Aβ(1–42) stocks (5% DMSO). YIAD compounds were first dissolved in DMSO (100 mM, 100% DMSO) and serially diluted with deionized water to make YIAD stocks with concentrations of 1, 10, 100, and 1000 μM (10% DMSO). For the Aβ(1–42) inhibition assay, monomeric Aβ(1–42) stocks and YIAD stocks were co-incubated at 37°C for 3 days. For Aβ(1–42) disaggregation assay, monomeric Aβ(1–42) stocks were preincubated at 37°C for three days to form Aβ(1–42) aggregates, and subsequently, YIAD stocks were added for an additional 3 days. For Aβ(1-40) disaggregation assays, Aβ(1–40) (50 μM, 5% DMSO) was preincubated at 37°C for 3 days to induce aggregation, and co-incubated with YIAD001 and YIAD002 for an additional 3 days. For Aβ(pE3-42) disaggregation assays, in house synthetic Aβ(pE3-42) (50 μM, 5% DMSO) was preincubated at 37°C for 1 day and co-incubated with YIAD002 for an additional 3 days. For tau K18 disaggregation assay, recombinant tau K18 fragments (35 μM) were dissolved in PBS with 0.1 mg/mL of heparin and 100 μM of DTT, then pre-aggregated at 37°C for 3 days. Then, YIAD stocks were added to aggregated K18 fragments for an additional 3 days. For tau repeat disaggregation assays, tau repeats (R1, R2, R3, R4) (35 μM) were dissolved in PBS with 0.1 mg/mL of heparin and 100 μM of DTT, then pre-aggregated at 37°C for 1 day. Then, YIAD002 was added to aggregated repeats for an additional 3 days. Prior to fluorescence intensity measurement, ThT solution (5 μM) was prepared by dissolving ThT, purchased from Sigma-Aldrich (MO, USA) in 50 mM glycine buffer (pH 8.5). To quantify the effect of inhibition and disaggregation, 25 μL of all samples and 75 μL of ThT solution were loaded into a half-area 96-well black plate in triplicate.

[2] = system: 5XFAD mice; test: 6E10 immunohistochemical staining of amyloid plaques in 5XFAD mice after oral administration; assay type: in vivo, mouse; details: 50 mg/kg/day via drinking water, 5 weeks, 4.5-month-old female 5XFAD mice, vs vehicle
Procedure: To test the in vivo efficacy of YIAD001 and YIAD002, female 5XFAD mice (n = 25) and female wildtype mice (n = 7) were assessed at the age of 4.5 months. YIAD compounds were dissolved in DMSO and diluted in drinking water to a final concentration of 50 mg/kg/day (5% DMSO, 5% Tween) for oral administration. The three compounds, YIAD001, YIAD002, and YIAD003, were freely administered via drinking water to 4.5-month-old 5XFAD mice (n = 6 for each group) for 5 weeks. As a control, 5% DMSO, 5% Tween in drinking water was provided ad libitum to littermate 5XFAD mice (n = 7) and wildtype mice (n = 7) for 5 weeks.
After the administration period, the mice were deeply anaesthetized with 4% avertin through intraperitoneal injection and transcardially perfused with 0.9% saline. Subsequently, the mice were sacrificed for brain excision. Each collected brain was divided through the mid-sagittal section; the hippocampal and cortical regions were dissected from one half and stored at −80°C for subsequent brain lysates, while the other half was immersed in 4% paraformaldehyde (pH 7.4) for 24 h and 30% sucrose for 48 h at 4°C and subsequently deep-froze at −80°C for immunohistochemistry.
Coronal hippocampal sections of 5XFAD mice brains (35 μm) were cut with a Cryostat (Leica, CM1860) and mounted onto glass slides. Antigen retrieval was performed by submerging slides in 1% SDS and unspecific binding was blocked through incubation in 20% horse serum in PBS for 1 h at RT. Aβ deposits were visualized through immunolabeling by anti-6E10 antibody (1:200 in PBS with 5% horse serum, Biolegend 803003) and detection by fluorescent secondary antibody (1:200 in PBS, IgG Alexa 488). Brain sections were additionally stained with Hoechst 33342. Fluorescent images of the brain sections were taken on a Leica DM2500 fluorescence microscope. Amyloid plaques were quantified using Image-J software (NIH).

[3] = biological target: T2, Aβ(1–42) aggregates (Homo sapiens, UniProt P05067); test: SDS-PAGE with PICUP and silver staining; assay type: biochemical; details: 500 μM compound, aggregated Aβ(1–42)
T2 construct: made in house; host or cells: chemical synthesis (Fmoc solid phase peptide synthesis)
Procedure: SDS-PAGE with photo-induced cross-linking of unmodified proteins (PICUP) and silver staining was used to evaluate the disaggregating effects of YIAD001 and YIAD002 by visualizing the size distributions and band intensity of Aβ(1–42). Samples were prepared under the same conditions as the Aβ(1–42) disaggregation ThT fluorescence assay. Amyloid proteins in the samples from the aforementioned disaggregation assay were subjected to cross-linking, initiated by irradiation (three exposures, each for 1 second) in the presence of tris(2,2′-bipyridyl)dichlororuthenium(II) hexahydrate (Ru(Bpy)) (1 mM) and 1 μL of ammonium persulfate (20 mM). Reactions were immediately quenched with β-mercaptoethanol and boiled for 5 min at 95°C. After cross-linking the samples, we separated amyloid species by SDS-PAGE on a 15% tris-tricine gel and performed silver staining according to the PlusOne Silver Staining kit protocol (GE Healthcare, USA).

[4] = biological target: T2, Aβ(1–42) aggregates; test: ThT fluorescence Aβ(1–42) disaggregation assay; assay type: biochemical; details: for Decrease of fibrillar Aβ(1–42) aggregates (ThT fluorescence): Aβ(1–42) 25 μM pre-aggregated 37°C 3 days, compound added for additional 3 days, concentration of the printed value not stated; for EC50: pre-aggregated Aβ(1–42) 25 μM, 3 + 3 days, 37°C
Procedure: as §1

T2 sequence (P05067 672-713 limits assumed): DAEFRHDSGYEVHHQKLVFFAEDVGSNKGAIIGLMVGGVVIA
T1 sequence (P05067 672-713 limits assumed): as above

CCC(C)(C)c1ccc(OCC(O)CN2CCOCC2)c(C(C)(C)CC)c1.Cl (centres unmarked) [YIAD001, 4-(3-(2,4-Di-tert-pentylphenoxy)-2-hydroxypropyl)morpholin-4-ium chloride]
Inhibition of Aβ(1–42) fibrillation (ThT fluorescence) [1]: 82.55%
Number of 6E10-stained plaques [2]: significantly reduced
Size distribution of Aβ(1–42) bands (fibrils, monomers) [3]: reduced fibrils and increased monomers
Decrease of fibrillar Aβ(1–42) aggregates (ThT fluorescence) [4]: 82.61%
EC50 [4]: 91.8 µM

CCC(C)(C)c1ccc(OCC(O)CN2CCCC2)c(C(C)(C)CC)c1.Cl (centres unmarked) [YIAD002, 1-(3-(2,4-Di-tert-pentylphenoxy)-2-hydroxypropyl)pyrrolidin-1-ium chloride]
Inhibition of Aβ(1–42) fibrillation (ThT fluorescence) [1]: 98.15%
Number of 6E10-stained plaques [2]: significantly reduced
Plaque area [2]: significant decrease
Size distribution of Aβ(1–42) bands (fibrils, monomers) [3]: reduced fibrils and increased monomers
Decrease of fibrillar Aβ(1–42) aggregates (ThT fluorescence) [4]: 99.94%
EC50 [4]: 16.9 µM
